Data on 2 molecules can be found in patent US8895511B2, “Use of sarcoplasmic CA2+-ATPase type 2 protein for diagnosing and treating learning or mental disorders” (priority 2009, dated 2014).

Structures are written as SMILES.

Assay [1] concerns CA3-CA1 synapses in acute hippocampal slices. Briefly: Paired-pulse facilitation (PPF) of fEPSPs, field potential recordings in hippocampal slices. In kind it is cell-based, mouse.
For assay [2] the test system is unchanged. The experiment in a line: PTP and LTP of fEPSPs induced by 200-Hz tetanization in hippocampal slices. It is filed as cell-based, mouse. Conditions: CPA or thapsigargin (4 μm); for fEPSP5 (PTP, 5 minutes after tetanization) as % of that in vehicle-treated Df(16)1/+ slices / fEPSP360 (LTP, 6 hours post-tetanus) as % of that in vehicle-treated Df(16)1/+ slices: slices from mature Df(16)1/+ mice.

The mark [3] stands for this setting: WT mice, 200-Hz induction protocol.

For `CC(=O)C1=C(O)[C@@H]2[C@H]3c4c[nH]c5cccc(c45)C[C@H]3C(C)(C)N2C1=O` [CPA, cyclopiazonic acid], the PPF amounted to 1.78±0.13 in assay [1] (Df(16)1/+ mice, 20-ms interval, CPA added to the bath solution); 1.76±0.09 in assay [1] (Df(16)1/+ mice, 50-ms interval, CPA added to the bath solution); 1.64±0.11 in assay [1] (WT mice, 20-ms interval, in the presence of CPA); 1.61±0.05 in assay [1] (WT mice, 50-ms interval, in the presence of CPA). For the same molecule, in assay [2] (200-Hz tetanization), the “fEPSP5 (PTP, 5 minutes after tetanization) as % of that in vehicle-treated Df(16)1/+ slices” value came to 45%. Moreover, the “fEPSP360 (LTP, 6 hours post-tetanus) as % of that in vehicle-treated Df(16)1/+ slices” value in assay [2] (200-Hz tetanization) amounted to 60%.

With `C/C=C(/C)C(=O)O[C@H]1C(C)=C2[C@H]([C@@H]1OC(=O)CCCCCCC)[C@@](C)(OC(C)=O)C[C@H](OC(=O)CCC)[C@@]1(O)[C@H]2OC(=O)[C@@]1(C)O` [thapsigargin], the “effect on enhancement of PTP and LTP” value in assay [2] (Df(16)1/+ mice, 200-Hz tetanization) is “rescued the enhancement of PTP and LTP”. Further, in assay [2] (setting [3]), the “WT fEPSP5 in the presence vs absence of inhibitor” value was “no significant difference” and the “WT fEPSP360 in the presence vs absence of inhibitor” value is listed as “no significant difference”. Besides, in assay [2] (200-Hz tetanization), the “fEPSP5 (PTP, 5 minutes after tetanization) as % of that in vehicle-treated Df(16)1/+ slices” value came to 69% and the “fEPSP360 (LTP, 6 hours post-tetanus) as % of that in vehicle-treated Df(16)1/+ slices” value was 57%.
